Data: patent US6903132B2, “Non-peptide GnRH agents, pharmaceutical compositions and methods for their use” (Agouron Pharmaceuticals, Inc., priority 2002, dated 2005)

Columns and labels:
Assay in all cases: Radioligand binding assay: inhibition of binding of 125I-GnRH-A to GnRH receptors (membranes)
mouse GnRH receptors = biological target: T1, mouse GnRH receptors (Mus musculus, UniProt Q01776); settings: Mouse GnRH receptor; competition with 125I-GnRH-A; Ki calculated from IC50 (Cheng et al.)
T1 construct: expressed in transfected cells; host or cells: HEK 293
T1 sequence (Q01776 1-327): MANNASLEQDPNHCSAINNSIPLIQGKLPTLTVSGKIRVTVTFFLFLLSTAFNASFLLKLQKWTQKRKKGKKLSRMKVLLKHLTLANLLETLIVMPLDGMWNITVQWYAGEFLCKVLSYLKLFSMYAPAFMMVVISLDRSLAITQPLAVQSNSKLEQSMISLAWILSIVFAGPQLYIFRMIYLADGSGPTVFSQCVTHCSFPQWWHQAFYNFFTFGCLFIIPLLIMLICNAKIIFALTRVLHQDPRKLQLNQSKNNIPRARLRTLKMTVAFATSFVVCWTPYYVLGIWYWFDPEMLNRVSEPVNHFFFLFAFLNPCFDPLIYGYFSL
Procedure: (§1) HEK 293 cells stably transfected with mouse or human GnRH receptors as described above are grown in Dulbecco's high-glucose, modified Eagle's medium (DMEM) supplemented with 0.2% G418, 10% fetal bovine serum (FBS) and 100U/mL penicillin/streptomycin. GH3 cells stably transfected with the rat GnRH receptor (GGH3) were provided by Dr. William Chin (Harvard Medical School, Boston, Mass.). These cells are extensively characterized previously (Kaiser et al., 1997). The cells are grown in low glucose DMEM containing: 100U/mL penicillin/streptomycin, 0.6% G418 and 10% heat-inactivated FBS.
(§2) HEK 293 cells containing mouse or human receptors, or rat pituitaries (Pel Freez Biologicals, Rogers, Ark.) are homogenized in buffer A containing: 50 mM Tris (pH 7.4), 0.32 M sucrose, 2 mM EGTA, 1 mM PMSF, 5 μg/ml aprotinen, 5 μg/ml Pepstatin A, and 1 μg/ml leupeptin. Homogenized cells are centrifuged at 4° C. at 20,000×g for 25 minutes, re-suspended in buffer A and re-centrifuged at 4° C. at 20,000×g for an additional 25 minutes. Total membrane protein was determined with a BCA kit (Pierce, Rockford, Ill.). Membranes are stored at −70° C. at a final membrane protein concentration of approximately 5 mg/ml.
(§3) The radioiodinated agonist analog of GnRH, [des-Gly^10, D-Ala^6]GnRH ethylamide (^125I-GnRH-A), is used as the radioligand. One μg of GnRH-A diluted in 0.5 M phosphate buffer (pH 7.4) is added to an lodogen®-coated borosilicate glass tube (Pierce, Rockford, Ill.) containing 35 μl of 0.05 M phosphate buffer (pH 7.4-7.6) and 1 mCi of Na[^125I]. The reaction mixture is vortexed and incubated for 1 minute at room temperature. After one minute, the mixture is vortexed and allowed to incubate for an additional minute. 2 ml of 0.5 M acetic acid/1% BSA is added to the reaction tube and the mixture is added to a C18 Sep-Pak cartridge. The cartridge is washed with subsequent washes of 5 ml H2O and 5 ml 0.5 M acetic acid and then eluted with 5×1 ml of 60%CH3CN/40% 0.5 M acetic acid. The eluate is diluted with 3× volume of HPLC buffer A (0.1% TFA in H2O) and loaded onto a C18 column. The iodinated product is eluted over 20-25 min with a gradient of 25-100% CH3CN containing 0.1% TFA. The radioactive fractions (750 μl/fraction) are collected into clean polypropylene tubes containing 100 μl of 10% BSA. Fractions are assessed for biological activity by radiolig and binding. Specific activity of the radioligand was approximately 2200 Ci/mmol.
(§4) Membranes are diluted to 0.01-0.5 mg/ml (depending upon the species of receptor) with assay buffer containing 50 mM HEPES (pH 7.4), 1 mM EDTA, 2.5 mM MgCl2, and 0.1% BSA. Membranes (diluted to utilize similar receptor numbers between assays) are incubated with approximately 0.04-0.06 nM ^125I-GnRH-A in the presence or absence of competing agents (0.1-10,000 nM) in a total volume of 200 μl in 96-well polypropylene plates for 1 hour at room temperature. Assays are stopped by rapid filtration onto 96-well GF/C filters soaked in 0.1% polyethylenimine (PEI) utilizing a Packard 96-well cell harvester. Filters are washed three times with ice-cold PBS (50 mM NaPO4, 0.9% NaCl, 2 mM MgCl2, and 0.02% NaN3, pH 7.4). 35 μl of scintillation cocktail is added to each filter well and filters are counted on a Packard Topcount. Control dose-response curves are generated to GnRH (0.1 nM-100 nM) in each competition binding experiment. Ki values were calculated from IC50 values according to Cheng et al., Biochemical Pharmacol. 22: 3099-3108, 1973. [formula]

rat GnRH receptor = biological target: T2, rat GnRH receptor (Rattus norvegicus, UniProt P30969); settings: competition with 125I-GnRH-A, Ki calculated from IC50 (Cheng et al.)
T2 construct: rat pituitaries (Pel Freez Biologicals, Rogers, Ark.) are homogenized in buffer A; tissue Pel Freez Biologicals; host or cells: rat pituitaries
T2 sequence (P30969 1-327): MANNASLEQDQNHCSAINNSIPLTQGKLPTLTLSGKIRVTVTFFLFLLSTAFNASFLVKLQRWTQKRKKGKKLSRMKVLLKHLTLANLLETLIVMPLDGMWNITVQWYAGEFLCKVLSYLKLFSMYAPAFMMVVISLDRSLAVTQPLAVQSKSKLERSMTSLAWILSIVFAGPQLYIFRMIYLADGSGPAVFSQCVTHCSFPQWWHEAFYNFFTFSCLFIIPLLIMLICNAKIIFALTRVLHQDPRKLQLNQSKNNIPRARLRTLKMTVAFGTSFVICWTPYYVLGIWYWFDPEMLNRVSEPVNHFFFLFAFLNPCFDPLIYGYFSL
Procedure: as §1, §2, §3, §4

human GnRH receptors = biological target: T3, human GnRH receptors (Homo sapiens, UniProt P30968); settings: Human GnRH receptor; competition with 125I-GnRH-A; Ki calculated from IC50 (Cheng et al.)
T3 construct: expressed in transfected cells; host or cells: HEK 293
T3 sequence (P30968 1-328): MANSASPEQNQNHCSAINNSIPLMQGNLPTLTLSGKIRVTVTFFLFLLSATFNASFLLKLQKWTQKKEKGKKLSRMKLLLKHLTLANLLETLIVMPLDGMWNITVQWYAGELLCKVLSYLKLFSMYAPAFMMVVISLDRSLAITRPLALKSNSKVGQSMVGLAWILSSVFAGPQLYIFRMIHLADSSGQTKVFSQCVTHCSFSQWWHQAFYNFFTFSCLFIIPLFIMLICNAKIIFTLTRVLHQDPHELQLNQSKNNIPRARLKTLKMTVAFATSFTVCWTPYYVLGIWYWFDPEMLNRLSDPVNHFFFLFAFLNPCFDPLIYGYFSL
Procedure: as §1, §2, §3, §4

| Compound | Ki (mouse GnRH receptors) [nM] | Ki (rat GnRH receptor) [nM] | Ki (human GnRH receptors) [nM] |
| --- | --- | --- | --- |
| Cc1cc(Cl)c(C(C)C)cc1Oc1ccc(C(=O)NNc2cc(C)c3c(C)nn(C)c3n2)o1 [Example I23, 5-(4-Chloro-5-isopropyl-2-methyl-phenoxy)-furan-2-carboxylic acid N′-(1,3,4-trimethyl-1H-pyrazolo[3,4-b]pyridin-6-yl)-hydrazide] | 22 | 370 | 30 |
| Cc1cc(NNC(=O)c2ccc(Oc3cc4c(cc3Cl)NCCC4(C)C)o2)nc2c1c(C)nn2C [Example I26, 5-(7-Chloro-4,4-dimethyl-1,2,3,4-tetrahydro-quinolin-6-yloxy)-furan-2-carboxylic acid N′-(1,3,4-trimethyl-1H-pyrazolo[3,4-b]pyridin-6-yl)-hydrazide] | 14 | 25 | 8.3 |
| Cc1cc(NNC(=O)c2ccc(Oc3ccc4c(c3)C(C)(C)CCC4(C)C)o2)nc2c1c(C)nn2C [Example F4, 5-[(5,5,8,8-tetramethyl-5,6,7,8-tetrahydro-2-naphthalenyl)oxy]-N′-(1,3,4-trimethyl-1H-pyrazolo[3,4-b]pyridin-6-yl)-2-furohydrazide] | 450 | 384 | 126 |
| Cc1ccc(C(C)(C)C)cc1Oc1ccc(C(=O)NNc2cc(C)c3c(C)nn(C)c3n2)o1 [Example I19, 5-(5-tert-Butyl-2-methyl-phenoxy)-furan-2-carboxylic acid N′-(1,3,4-trimethyl-1H-pyrazolo[3,4-b]pyridin-6-yl)-hydrazide] | 44 | 39 | 17 |
| Cc1cc(NNC(=O)c2ccc(Cc3cc4c(cc3Cl)C(C)(C)CCC4(C)C)o2)nc2c1c(C)nn2C [Example C4, 5-[(3-chloro-5,5,8,8-tetramethyl-5,6,7,8-tetrahydro-2-naphthalenyl)methyl]-N′-(1,3,4-trimethyl-1H-pyrazolo[3,4-b]pyridin-6-yl)-2-furohydrazide] | 8.2 | 22 | 1.3 |
| Cc1cc2c(cc1Oc1ccc(C(=O)NNc3cc(C)c4c(C)nn(C)c4n3)o1)C(c1ccccc1)CCC2 (stereo not drawn) [Example I18, 5-(3-Methyl-8-phenyl-5,6,7,8-tetrahydro-naphthalen-2-yloxy)-furan-2-carboxylic acid N′-(1,3,4-trimethyl-1H-pyrazolo[3,4-b]pyridin-6-yl)-hydrazide] | 59 | 154 | 58 |
| Cc1cc2c(c(C)c1Oc1ccc(C(=O)NNc3cc(C)c4c(C)nn(C)c4n3)o1)C(C)(C)CCC2(C)C [Example I9, 5-(1,3,5,5,8,8-Hexamethyl-5,6,7,8-tetrahydro-naphthalen-2-yloxy)-furan-2-carboxylic acid N′-(1,3,4-trimethyl-1H-pyrazolo[3,4-b]pyridin-6-yl)-hydrazide] | 2.1 | 3.8 | 1.2 |
| Cc1cc2c(cc1Oc1oc(C(=O)NNc3cc(C)c4c(C)nn(C)c4n3)cc1Br)C(C)(C)CCC2(C)C [Example F3, 4-Bromo-5-[(3,5,5,8,8-pentamethyl-5,6,7,8-tetrahydro-2-naphthalenyl)oxy]-N′-[1,3,4-trimethyl-1H-pyrazolo[3,4-b]pyridin-6-yl)-2-furohydrazide] | 136 | 535 | 80 |
| Cc1cc2c(cc1Oc1ccc(C(=O)NNc3cc(C)c4c(C)nn(C)c4n3)o1)C(C)(C)CCC2 [Example I21, N′-(1,3,4-trimethyl-1H-pyrazolo[3,4-b]pyridin-6-y)-5-[(3,8,8-trimethyl-5,6,7,8-tetrahydro-2-naphthalenyl)oxy]-2-furohydrazide] | 5 | 22 | 4.2 |
| Cc1cc2c(cc1Oc1ccc(C(=O)NNc3ccc4ccccc4n3)o1)C(C)(C)CC(C)C2(C)C (stereo not drawn) [Example I20, 5-(3,5,5,6,8,8-Hexamethyl-5,6,7,8-tetrahydro-naphthalen-2-yloxy)-furan-2-carboxylic acid N′-quinolin-2-yl-hydrazide] | 4 | 7.3 | 3.8 |
| Cc1cc(C(F)(F)F)cc(NNC(=O)c2ccc(Cc3cc4c(cc3C)C(C)(C)CCC4(C)C)o2)n1 [Example C13, N′-[6-methyl-4-(trifluoromethyl)-2-pyridinyl]-5-[(3,5,5,8,8-pentamethyl-5,6,7,8-tetrahydro-2-naphthalenyl)methyl]-2-furohydrazide] | 130 | 240 | 220 |
| Cc1cc2c(cc1Cc1ccc(C(=O)NNc3ncc(C(F)(F)F)cc3Cl)o1)C(C)(C)CCC2(C)C [Example C12, N′-[3-Chloro-5-(trifluoromethyl)-2-pyridinyl]-5-[(3,5,5,8,8-pentamethyl-5,6,7,8-tetrahydro-2-naphthalenyl)methyl]-2-furohydrazide] | 33 | 39 | 46 |
| COc1c(Oc2ccc(C(=O)NNc3cc(C)c4c(C)nn(C)c4n3)o2)c(C)cc2c1C(C)(C)CCC2(C)C [Example I28, 5-(1-Methoxy-3,5,5,8,8-pentamethyl-5,6,7,8-tetrahydro-naphthalen-2-yloxy)-furan-2-carboxylic acid N′-(1,3,4-trimethyl-1H-pyrazolo[3,4-b]pyridin-6-yl)-hydrazide] | 2.6 | 4.2 | 0.3 |
| Cc1cc2c(cc1Oc1ccc(C(=O)NNc3cc(C)c4c(C)nn(C)c4n3)o1)C(C)(C)C(C)C2(C)C (stereo not drawn) [Example M4, 5-(1,1,2,3,3,6-Hexamethyl-indan-5-yloxy)-furan-2-carboxylic acid N′-(1,3,4-trimethyl-1H-pyrazolo[3,4-b]pyridin-6-yl)-hydrazide] | 3.7 | 3.9 | 1.8 |
